Results from US9546157B2, “Asymmetric piperidinyl-substituted ureas as medicines” (Helsinn Healthcare SA, priority 2014, dated 2017).
“Also recorded” adds a separate entry of the source.

Assays:
GHSR1a [1] = target: T1, GHSR1a (Homo sapiens, UniProt Q92847); assay: Calcium FLIPR assay, GHSR-1a antagonism (reduction of ghrelin response); format: cell-based; details: HEK293/GHSR1a cells, ghrelin 10 nM
T1 construct: expressed in transfected cells; host or cells: HEK293
Outline: (§1)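 Cells stably carrying human GHSR1a were plated a day ahead, dye-loaded, then given test compound. Agonist activity was the calcium rise over 2 minutes after compound addition at t=20 sec; antagonist activity was the reduction of the response to 10 nM ghrelin added together with compound.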

rat = assay: Food intake in rat (PO, with or without ANA); format: in vivo
C57BL/6J mice = assay: Food intake test in mouse (GHSR1a antagonists); format: in vivo; details: for inhibition in vivo at 10 mg/kg: Mus musculus, ip, 1 h, i.p. 10 mg/kg
Outline: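 Male C57BL/6J mice (18-22 g) were fasted overnight (16 h before dosing), then randomized by body weight to vehicle or test agent (n=6 each). Cumulative food intake was measured at 1, 2, 4, 8 and 24 hrs post-dose as premeasured food minus uneaten food.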

GHSR1a [2] = target: T1, GHSR1a; assay: Calcium FLIPR assay, GHSR-1a agonism; format: cell-based; parameters: Emax: unit not given here; details: HEK293/GHSR1a cells
Outline: as §1

[3] = Metabolic Stability (H = Human); format: in vitro ADME
[4] = Metabolic Stability (M = Mouse); format: in vitro ADME
Metabolic Stability (R) = format: in vitro ADME; details: R (not defined)
Metabolic Stability (D) = format: in vitro ADME; details: D (not defined)
[5] = system: female Sprague-Dawley rats; assay: Binge eating model in non-estrous female rats (food restriction + stress, HPF intake); format: in vivo, rat; details: for HPF intake (binge eating) in R+S rats: 60 mg/kg by gavage 1 h before access to HPF
Protocol: In this Example, the therapeutic potential of compounds were tested for their ability to inhibit binge eating. The animal model used was developed to explore the combination of food restriction and stress. […] Considering the reliability and the robustness of this model, it was adopted to test the inventive compounds.
A total of N=117, 52-day-old female Sprague-Dawley rats (175-200 g) were used. Rats were acclimated in individual cages with metallic walls; the floor and the front wall made of metallic grid. The dimensions of the cage floor being 30 cm×30 cm; the cage is 30 cm high. A front door (30 cm×20 cm) made of metallic grid was positioned in the anterior wall of the cage to gain access to the inside of the cage; the remaining part of the front wall was equipped with a drinking burette.
Rats were kept in a room at constant temperature (20-22° C.) and humidity (45-55%) under a 12-h light/dark cycle (lights on at 08:00 am) with ad lib chow and water. All procedures were conducted in adherence to the European Community Directive for Care and Use of Laboratory Animals.
Rats were offered food pellets, 4RF18, Mucedola, Settimo Milanese, Italy (2.6 kcal/g). The Highly Palatable Food (HPF) was prepared by mixing:
Rats were exposed to 3 consecutive 8-day cycles followed by the final test on day 25:
a) the control group (NR+NS) had chow ad libitum for 4 days, on days 5-6 it received chow+HPF for 2 h; on days 7-8 it had chow ad libitum; on day 25 it was not exposed to stress;
b) the second group (R+S) had chow restricted to 66% of the normal intake for 4 days, was offered chow and HPF (2 h) on days 5-6 and only chow on days 7-8; on day 25 it […].
Body weights and food intake were recorded daily. Food intake is expressed as mean kilocalories per kilogram ingested±SEM.
Therefore, immediately after the test on day 25, vaginal smears were collected and analyzed under microscope to assess the ovarian phase, and data from rats in the estrous phase were not included in the statistical analysis. Vaginal smears were analyzed by an experienced experimenter blind to treatment conditions.
For 15 min, the container (China coffee cup) containing HPF is placed outside the cage; the container handle is hooked to the top wire wall of the cage in the hollow part where food pellets are usually offered. In these conditions, the animal is able to see the cup in which it received HPF on days 5, 6, 13, and 14 of the first two cycles, is able to see in part the HPF itself, and is able to smell its odour. In this 15-min period, the rat engages in repeated movements of the forepaws, head, and trunk aimed at obtaining the HPF, but it is not able to reach it. Rats undergo the stressful procedure between 10.00 and 12.00 am. After 15 min, the cup is placed inside the cage of the rats in the stress group (R+S), so that the HPF became accessible to the rat.
100 mg of each compound (H0816, H0860, H0847 and H0900) was accurately weighed and suspended in 13.33 ml of 0.5% carboxymethyl cellulose sodium salt (CMC, Sigma-Aldrich Cat. C4888, lot 120M0216V) solution. The lower dose solution was prepared by dilution of 30 mg/ml suspension with 0.5% CMC solution. Suspensions were prepared freshly on test day. Vehicle was composed by a solution of 0.5% carboxymethyl cellulose sodium salt and was prepared by dissolving 1 g of CMC in 200 ml of distilled water. 180 mg of Topiramate was accurately weighed and suspended in 12 ml of 0.5% CMC solution. Compounds (vehicle and active principles) were administered by gavage in a volume of 4 ml/kg of body weight one hour before access to HPF.
All data are expressed as the mean±s.e.m. and each value reflects the mean number of animals per group as described in the legends. For data evaluation, the analysis of variance (ANOVA) was used followed by post-hoc (Bonferroni's) test when appropriate. Statistical significance was set at P<0.05. The Software used for the Graphs was Origin 7.0. […]

[6] = first test, acute administration (compounds 3 and 30 mg/kg, Topiramate 60 mg/kg)
[7] = second test, H0816 3, 10 and 30 mg/kg, Topiramate 60 mg/kg

T1 sequence (Q92847 whole entry): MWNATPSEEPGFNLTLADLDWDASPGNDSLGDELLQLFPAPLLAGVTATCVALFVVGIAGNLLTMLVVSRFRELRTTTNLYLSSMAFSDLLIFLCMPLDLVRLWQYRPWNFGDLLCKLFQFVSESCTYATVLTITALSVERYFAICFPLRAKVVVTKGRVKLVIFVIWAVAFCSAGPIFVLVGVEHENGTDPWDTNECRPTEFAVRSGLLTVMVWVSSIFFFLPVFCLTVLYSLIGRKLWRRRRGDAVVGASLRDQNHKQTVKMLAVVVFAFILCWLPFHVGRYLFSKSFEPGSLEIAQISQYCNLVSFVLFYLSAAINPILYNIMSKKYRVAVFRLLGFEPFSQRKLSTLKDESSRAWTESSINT

| Structure (SMILES) | IC50 (GHSR1a [1]) | Mouse Food Intake, result in words (C57BL/6J mice; PO, dose not given) | EC50 (GHSR1a [2]) | Metabolic Stability H [3] | Metabolic Stability M [4] | Metabolic Stability R (Metabolic Stability (R)) | Metabolic Stability D (Metabolic Stability (D)) | further results |
| --- | --- | --- | --- | --- | --- | --- | --- | --- |
| CC(NC(=O)N(C)C1CCN(C)CC1)c1ccc(-c2cncc(F)n2)c(Cl)c1Cl (stereo not shown) [Compound H0795, 3-(1-(2,3-dichloro-4-(6-fluoropyrazin-2-yl)phenyl)ethyl)-1-methyl-1-(1-methylpiperidin-4-yl)urea] | 4 nM | NSE | > 30000 nM | High H High M | High H High M |  |  | Food intake in rat, result in words (rat; PO + ANA): no activity; Mouse Food Intake, result in words (C57BL/6J mice; PO + ANA (ANAM), mice, dose not given): inhib |
| CC(NC(=O)N(C)C1CCN(C)CC1)c1ccc(C#Cc2cscn2)c(Cl)c1Cl (stereo not shown) [Compound H0751, 3-(1-(2,3-dichloro-4-(thiazol-4-ylethynyl)phenyl)ethyl)-1-methyl-1-(1-methylpiperidin-4-yl)urea] | 6 nM | no effect | 62 nM | High H High M | High H High M |  |  | Food intake in rat, result in words (rat; PO + ANA): no effect; inhibition in vivo at 10 mg/kg (C57BL/6J mice): 91%; Emax (GHSR1a [2]): 1267 |
| C[C@H](NC(=O)N(C)C1CCN(C)C1)c1ccc(-c2cnccn2)c(Cl)c1Cl (mixture of isomers) [Compound H0837, 3-((S)-1-(2,3-dichloro-4-(pyrazin-2-yl)phenyl)ethyl)-1-methyl-1-(1-methylpyrrolidin-3-yl)urea] | 2 nM |  | > 30000 nM | High H High M High R High D | High H High M High R High D | High H High M High R High D | High H High M High R High D | Mouse Food Intake % increase (C57BL/6J mice; 2 h, 30 mg/kg PO mice): 180%; Mouse Food Intake, result in words (C57BL/6J mice; PO 10 mg/kg + ANA (ANAM) 30 mg/kg mice): NSE |
| CN1CC[C@@H](N(C)C(=O)NC(c2ccc(-c3cnccn3)c(Cl)c2Cl)C(F)(F)F)C(C)(C)C1 (stereo partly drawn) [Compound H0865, 3-(1-(2,3-dichloro-4-(pyrazin-2-yl)phenyl)-2,2,2-trifluoroethyl)-1-methyl-1-((R)-1,3,3-trimethylpiperidin-4-yl)urea] | 6 nM |  | > 30000 nM | Medium | Low | Medium |  |  |
| CC(NC(=O)N(Cc1ccccc1)C1CCN(C)CC1)c1ccc(-c2cnccn2)c(Cl)c1Cl (stereo not shown) [Compound H0825, 1-benzyl-3-(1-(2,3-dichloro-4-(pyrazin-2-yl)phenyl)ethyl)-1-(1-methylpiperidin-4-yl)urea] | 10 nM |  | > 30000 nM | Medium H Medium M Medium R | Medium H Medium M Medium R | Medium H Medium M Medium R |  |  |
| CCN(C(=O)NC(C)c1ccc(-c2cnccn2)c(Cl)c1Cl)C1CCN(C)CC1 (stereo not shown) [Compound H0826, 3-(1-(2,3-dichloro-4-(pyrazin-2-yl)phenyl)ethyl)-1-ethyl-1-(1-methylpiperidin-4-yl)urea] | 5 nM |  | > 30000 nM | High | High | High | Medium |  |
| CC1(C)O[C@@H]2[C@@H](CO[C@@]3(COS(N)(=O)=O)OC(C)(C)O[C@@H]23)O1 [Topiramate, reference compound] |  |  |  |  |  |  |  | HPF intake (binge eating) in R+S rats ([5]; first test, vs R+S vehicle, 60 mg/kg): confirmed its inhibitory effect; also recorded: statistically significant at all time points; also recorded: completely abolished BE episode; 2-h chow food intake during binge eating test [5, 6]: did not modify 2-h chow intake; 24-h chow food intake after binge eating test [5, 6]: did not modify 24-h chow intake; HPF intake (binge eating) in R+S rats ([5]; second test): statistically significant at all time points; 2-h chow intake [5, 7]: did not modify; 24-h chow intake [5, 7]: did not modify |
| CN1CCC(N(C)C(=O)NC(c2ccc(-c3cnccn3)c(Cl)c2Cl)C(F)(F)F)CC1 (stereo not shown) [Compound H0830, 3-(1-(2,3-dichloro-4-(pyrazin-2-yl)phenyl)-2,2,2-trifluoroethyl)-1-methyl-1-(1-methylpiperidin-4-yl)urea] | 3 nM |  | > 30000 nM | High | High | High | Medium |  |
| CC(NC(=O)N(C)C1CCN(C)CC1)c1ccc(C#Cc2ccco2)c(Cl)c1Cl (stereo not shown) [Compound H0762, 3-(1-(2,3-dichloro-4-(furan-2-ylethynyl)phenyl)ethyl)-1-methyl-1-(1-methylpiperidin-4-yl)urea] | 5 nM | NSEt | > 30000 nM | High H High M | High H High M |  |  | Food intake in rat, result in words (rat; PO): NSEt; inhibition in vivo at 10 mg/kg (C57BL/6J mice): 93% |
